Where no end group is shown, it is not given here.
Assay: Restoration of thymus weight decreased by 5-FU injection
Assay type: in vivo, mice
Settings: for Av. thymus weight mg: 8 days after 5-FU, control 39.4, 5-FU alone 23.4; for Av. thymus weight %: % of control; for Restoration Activity(%): thymus weight
Method: It is known that anticancer drugs suppress immunological functions by affecting immunocytes. The thymus gland, which is essential for differentiation, maturation and supply to T-cells responsible for immunological reactions, decreases markedly in weight after injection of 5-FU. […] FIfty μg/kg of Compound A administered orally was as effective as 5 μg/kg of thymosin α1 injected intraperitoneally, when the thymus weight was measured immediately after the DTH measurement at 8 days after the 5-FU injection (see Table 5).
*Seven mice per group received the test compound one day before,
concurrently with, and 1 and 2 days after 5FU injection i.p. (100 mg/kg).
The mice were injected CRBC for The DTH assay at 3 and 7 days after the
The thymus weight was measured at 8 days after the 5FU injection.

| Substance | Av. thymus weight mg (5-FU (100 mg/kg i.p.) plus 0.5 μg/kg/day i.p.) [mg] | Av. thymus weight mg (5-FU (100 mg/kg i.p.) plus 5.0 μg/kg/day i.p.) [mg] | Av. thymus weight % (5-FU plus 0.5 μg/kg/day i.p.) [%] | Av. thymus weight % (5-FU plus 5.0 μg/kg/day i.p.) [%] | Restoration Activity(%) (5-FU plus 0.5 μg/kg/day i.p.) | Restoration Activity(%) (5-FU plus 5.0 μg/kg/day i.p.) | restoration of thymus weight (in words) (50 μg/kg orally, one day before, concurrently with, and 1 and 2 days after 5-FU (100 mg/kg)) | Av. thymus weight mg (5-FU (100 mg/kg i.p.) plus 5.0 μg/kg/day p.o.) [mg] | Av. thymus weight mg (5-FU (100 mg/kg i.p.) plus 50.0 μg/kg/day p.o.) [mg] | Av. thymus weight % (5-FU plus 5.0 μg/kg/day p.o.) [%] | Av. thymus weight % (5-FU plus 50.0 μg/kg/day p.o.) [%] | Restoration Activity(%) (5-FU plus 50.0 μg/kg/day p.o.) |
| --- | --- | --- | --- | --- | --- | --- | --- | --- | --- | --- | --- | --- |
| thymosin α1 (SDAAVDTSSEITTKDLKEKKEVVEEAEN; ends and bridges not checked; UniProt P01252 2-29, looked up) [peptide isolated from bovine thymus, stimulates maturation, differentiation and function of T cells; U.S. Pat. No. 4,079,127, reference compound] | 24.9 ± 1.7 | 26.7 ± 1.1 | 63.2 | 67.8 | 9.4 | 20.6 | – | – | – | – | – | – |
| KKEVVE [Compound A, L-Lysyl-L-lysyl-L-glutamyl-L-valyl-L-valyl-L-glutamic acid] | – | – | – | – | – | – | restore the decreased thymus weight | 23.0 ± 1.6 | 26.6 ± 1.0 | 58.4 | 67.5 | 20.0 |

Source: US4442031A, “Immunopotentiating peptides” (Hoffmann-La Roche Inc., priority 1983, dated 1984)
